Where two headings read alike, the source gives them in different places.
Assays:
[1] = target: BACE 1 (Beta Secretase enzyme) (Homo sapiens, UniProt P56817); assay: In vitro enzymatic BACE FRET assay; assay type: biochemical
In short: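 BACE activity read by FRET: peptide substrate (50 nM) carrying fluorophore and quencher across the cleavage site, incubated one hour in 0.05 M acetate pH 4.2, 10% DMSO final, 100 uM genapol. Tris addition raises pH to neutrality to stop the reaction before fluorescence is read.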

[2] = test system: Aβ40 in conditioned medium of cells stably expressing Amyloid Precursor Protein (APP); assay: In vitro BACE cell-based assay (HEK cell assay), Aβ40 sandwich ELISA
In short: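 Cells stably expressing APP received 10-point compound dilutions (top 100 μM or 10 μM; 0.1% DMSO) for 24 h. Secreted Aβ40 was quantified by sandwich ELISA (pAb40 capture, biotinylated 6E10 detection, europium time-resolved fluorescence). IC50 was derived from percent inhibition versus concentration.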

[3] = IC50 range symbols, Table 1, read-out: BACE 1 FRET assay
[4] = Homo sapiens, HEK293, 24 h, IC50 range symbols, Table 1, Aβ40, 24 h incubation, read-out: HEK cell assay
[5] = IC50 range symbols, Table 1, Aβ40, 24 h incubation, read-out: HEK cell assay
[6] = bound stated, read-out: IC50 value in the FRET BACE enzyme assay
[7] = Homo sapiens, HEK293, bound stated in text, read-out: IC50 value in the BACE cell-based in-vitro assay

Sequence of BACE 1 (Beta Secretase enzyme) (P56817 46-501, species assumed): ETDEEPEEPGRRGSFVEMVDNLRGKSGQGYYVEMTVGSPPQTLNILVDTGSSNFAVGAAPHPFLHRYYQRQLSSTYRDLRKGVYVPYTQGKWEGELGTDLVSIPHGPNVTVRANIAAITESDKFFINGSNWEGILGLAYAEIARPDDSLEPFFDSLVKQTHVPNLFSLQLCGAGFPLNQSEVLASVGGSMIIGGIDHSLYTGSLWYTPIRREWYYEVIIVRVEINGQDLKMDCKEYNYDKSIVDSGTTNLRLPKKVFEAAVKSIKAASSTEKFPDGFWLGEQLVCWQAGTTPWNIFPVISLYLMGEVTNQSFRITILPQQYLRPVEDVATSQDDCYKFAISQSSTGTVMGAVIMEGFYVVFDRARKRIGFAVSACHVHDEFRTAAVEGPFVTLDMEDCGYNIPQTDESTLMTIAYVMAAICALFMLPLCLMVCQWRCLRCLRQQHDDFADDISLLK

| Compound | IC50 [1, 3] | IC50 [2, 4] | IC50 [2, 5] | IC50 [1, 6] | IC50 [2, 7] |
| --- | --- | --- | --- | --- | --- |
| Cc1cccc(C(=O)N2CCCC2)c1-c1ccc2nc(N)c(CC(C)C(=O)NC3CC3)cc2c1 (stereo not drawn) [Example 150, 3-(2-amino-6-(2-methyl-6-(pyrrolidine-1-carbonyl)phenyl)quinolin-3-yl)-N-cyclopropyl-2-methylpropanamide] | < 500 nM | < 500 nM | – | – | – |
| Cc1ccccc1-c1ccc2nc(N)c(CC(C)C(=O)Nc3ccccc3)cc2c1 (stereo not drawn) [Example 51, 3-(2-amino-6-o-tolylquinolin-3-yl)-2-methyl-N-phenylpropanamide] | < 500 nM | 1000 to 5000 nM | – | – | – |
| 3-(3-amino-7-o-tolylnaphthalen-2-yl)-N-(2-methoxy-2-methylpropyl)propanamide [Example 29] | 500 to 1000 nM | – | 1000 to 5000 nM | – | – |
| Cc1ccccc1-c1ccc2nc(N)c(CC(C)C(=O)NCC3CCCOC3)cc2c1 (stereo not drawn) [Example 92, 3-(2-amino-6-o-tolylquinolin-3-yl)-2-methyl-N-((tetrahydro-2H-pyran-3-yl)methyl)propanamide] | < 500 nM | < 500 nM | – | – | – |
| 3-(3-amino-7-o-tolylnaphthalen-2-yl)-N-(1-phenylethyl)propanamide [Example 30] | < 500 nM | – | 1000 to 5000 nM | – | – |
| Cc1ccccc1-c1ccc2nc(N)c(CCC(=O)NCC3CCCCC3)nc2c1 [Example 140, 3-(3-amino-7-(2-methylphenyl)-2-quinoxalinyl)-N-(cyclohexylmethyl)propanamide] | < 500 nM | 1000 to 5000 nM | – | – | – |
| CC(C)c1ccccc1-c1ccc2nc(N)c(CCC(=O)NCC3CCCCC3)cc2c1 [Example 72, 3-(2-amino-6-(2-isopropylphenyl)quinolin-3-yl)-N-(cyclohexylmethyl)propanamide] | < 500 nM | > 5000 nM | – | – | – |
| 3-(3-amino-7-o-tolylnaphthalen-2-yl)-N-((R)-1-cyclohexylethyl)propanamide [Example 31] | < 500 nM | – | > 5000 nM | – | – |
| Cc1ccccc1-c1ccc2nc(N)c(CCC(=O)NC3CCCN(C)C3)cc2c1 (stereo not drawn) [Example 39, 3-(2-amino-6-o-tolylquinolin-3-yl)-N-(1-methylpiperidin-3-yl)propanamide] | 1000 to 5000 nM | 1000 to 5000 nM | – | – | – |
| Cc1cccnc1-c1ccc2nc(N)c(CC(C)C(=O)NC[C@@H]3CCCOC3)cc2c1 (stereo partly drawn) [Example 89, 3-(2-amino-6-(3-methylpyridin-2-yl)quinolin-3-yl)-2-methyl-N-(((S)-tetrahydro-2H-pyran-3-yl)methyl)propanamide] | < 500 nM | 500 to 1000 nM | – | – | – |
| Cc1ccccc1-c1ccc2nc(N)c(CCCNC(=O)C3CCCCC3)cc2c1 [Example 48, N-(3-(2-amino-6-o-tolylquinolin-3-yl)propyl)cyclohexanecarboxamide] | < 500 nM | 1000 to 5000 nM | – | – | – |
| CO[C@@H]1CCC[C@H]1NC(=O)CCc1cc2cc(-c3ccccc3C)ccc2nc1N [Example 62, 3-(2-amino-6-o-tolylquinolin-3-yl)-N-((1R,2R)-2-methoxycyclopentyl)propanamide] | < 500 nM | 1000 to 5000 nM | – | – | – |
| Cc1ccccc1-c1ccc2nc(N)c(CC(C)C(=O)NC3CCCN(C)C3)cc2c1 (stereo not drawn) [Example 64, 3-(2-amino-6-o-tolylquinolin-3-yl)-2-methyl-N-(1-methylpiperidin-3-yl)propanamide] | < 500 nM | < 500 nM | – | – | – |
| COc1ccccc1[C@@H](C)NC(=O)C(C)Cc1cc2cc(-c3ccccc3C)ccc2nc1N (stereo partly drawn) [Example 129, 3-(2-amino-6-o-tolylquinolin-3-yl)-N-((R)-1-(2-methoxyphenyl)ethyl)-2-methylpropanamide] | < 500 nM | – | 1000 to 5000 nM | – | – |
| Cc1ccccc1-c1cc2cc(CCC(=O)NCC3CCCCC3)c(N)nc2cc1F [Example 96, 3-(2-amino-7-fluoro-6-(2-methylphenyl)-3-quinolinyl)-N-(cyclohexylmethyl)propanamide] | < 500 nM | 1000 to 5000 nM | – | < 50 nM | – |
| Cc1ccccc1-c1ccc2nc(N)c(C[C@@H](C)C(=O)NC3CCCC(C)(C)C3)cc2c1 (stereo partly drawn) [Example 162, (2R)-3-(2-amino-6-(2-methylphenyl)-3-quinolinyl)-N-(3,3-dimethylcyclohexyl)-2-methylpropanamide] | < 500 nM | < 500 nM | – | – | – |
| CC(Cc1cc2cc(-c3ncccc3CCN3CCCC3)ccc2nc1N)C(=O)NCCC(C)(C)C (stereo not drawn) [Example 125, 3-(2-amino-6-(3-(2-(pyrrolidin-1-yl)ethyl)pyridin-2-yl)quinolin-3-yl)-N-(3,3-dimethylbutyl)-2-methylpropanamide] | < 500 nM | < 500 nM | – | – | – |
| Cc1cccc(C(=O)N2CCCC2)c1-c1ccc2nc(N)c(CC(C)C(=O)Nc3ccccc3)cc2c1 (stereo not drawn) [Example 153, 3-(2-amino-6-(2-methyl-6-(pyrrolidine-1-carbonyl)phenyl)quinolin-3-yl)-2-methyl-N-phenylpropanamide] | < 500 nM | < 500 nM | – | < 50 nM | < 100 nM |
| Cc1ccccc1-c1ccc2nc(N)c(C[C@@H](C)C(=O)NCc3ncccn3)cc2c1 [Example 85, (R)-3-(2-amino-6-o-tolylquinolin-3-yl)-2-methyl-N-(pyrimidin-2-ylmethyl)propanamide] | < 500 nM | < 500 nM | – | – | – |
| CCCCOc1ccccc1-c1ccc2nc(N)c(CC(C)C(=O)NCC3CCCCC3)cc2c1 (stereo not drawn) [Example 103, 3-(2-amino-6-(2-butoxyphenyl)quinolin-3-yl)-N-(cyclohexylmethyl)-2-methylpropanamide] | < 500 nM | < 500 nM | – | < 50 nM | – |
| CC(Cc1cc2cc(-c3ccccc3CN(C)C)ccc2nc1N)C(=O)NCC1CCCCC1 (stereo not drawn) [Example 108, 3-(2-amino-6-(2-((dimethylamino)methyl)phenyl)quinolin-3-yl)-N-(cyclohexylmethyl)-2-methylpropanamide] | < 500 nM | < 500 nM | – | – | < 100 nM |
| Cc1cccnc1-c1ccc2nc(N)c(CC(C)C(=O)NCCC3CCCO3)cc2c1 (stereo not drawn) [Example 113, 3-(2-amino-6-(3-methylpyridin-2-yl)quinolin-3-yl)-2-methyl-N-(2-(tetrahydrofuran-2-yl)ethyl)propanamide] | 500 to 1000 nM | 1000 to 5000 nM | – | – | – |
| Cc1ccccc1-c1ccc2nc(N)c(CCC(=O)NCc3ccn(C)n3)cc2c1 [Example 54, 3-(2-amino-6-o-tolylquinolin-3-yl)-N-((1-methyl-1H-pyrazol-3-yl)methyl)propanamide] | 1000 to 5000 nM | > 5000 nM | – | – | – |
| N-(2-fluorobenzyl)-3-(3-amino-7-o-tolylnaphthalen-2-yl)propanamide [Example 27] | < 500 nM | – | 1000 to 5000 nM | – | – |
| 3-(3-amino-7-o-tolylnaphthalen-2-yl)-N-(pyridin-2-ylmethyl)propanamide [Example 36] | < 500 nM | – | 1000 to 5000 nM | – | – |
| Cc1ccccc1-c1ccc2nc(N)c(CCC(=O)NC3CCOC(C)(C)C3)cc2c1 (stereo not drawn) [Example 163, 3-(2-amino-6-(2-methylphenyl)-3-quinolinyl)-N-(-2,2-dimethyltetrahydro-2H-pyran-4-yl)propanamide] | < 500 nM | < 500 nM | – | – | < 100 nM |
| CCC1CCN1C(=O)C(C)Cc1cc2cc(-c3ncccc3C)ccc2nc1N (stereo not drawn) [Example 118, 3-(2-amino-6-(3-methylpyridin-2-yl)quinolin-3-yl)-1-(2-ethylazetidin-1-yl)-2-methylpropan-1-one] | > 5000 nM | > 5000 nM | – | – | – |
